The values that follow come from patent publication US20260199309A1, “COMPOUNDS FOR THE TREATMENT OF CENTRA NERVOUS SYSTEM DISORDERS” (Autifony Therapeutics Limited, priority 2022, published 2026).

Assay [1] deals with T1, human Kv3.1 channels (hKv3.1) (Homo sapiens, UniProt P48547).
T1 construct: expressed in transfected cells
T1 sequence (P48547 1-511): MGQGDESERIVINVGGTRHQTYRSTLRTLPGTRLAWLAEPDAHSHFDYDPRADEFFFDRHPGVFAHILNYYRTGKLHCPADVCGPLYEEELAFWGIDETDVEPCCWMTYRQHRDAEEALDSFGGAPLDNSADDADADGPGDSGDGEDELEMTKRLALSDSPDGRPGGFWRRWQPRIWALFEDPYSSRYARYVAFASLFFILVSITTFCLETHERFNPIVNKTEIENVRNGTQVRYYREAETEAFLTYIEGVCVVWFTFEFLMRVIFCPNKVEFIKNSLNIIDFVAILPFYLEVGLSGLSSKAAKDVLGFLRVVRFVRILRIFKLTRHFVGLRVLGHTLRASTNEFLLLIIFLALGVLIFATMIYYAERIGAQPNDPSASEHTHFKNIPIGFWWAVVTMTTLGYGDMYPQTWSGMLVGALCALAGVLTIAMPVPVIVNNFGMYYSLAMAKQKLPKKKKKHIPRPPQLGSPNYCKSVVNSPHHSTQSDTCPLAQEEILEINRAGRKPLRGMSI
Put plainly: Kv3.1 channel modulation, IonWorks Quattro planar array electrophysiology. Format: cell-based. The note with it: HEK-293 cells expressing human Kv3.1; for EC50: read-out: Kv3.1 pEC50 (converted); for Kv3.1 max R %: normalised to maximum effect of 50 microM reference compound. For orientation: Patch clamp records ionic current or voltage across a cell membrane.

A further assay deals with T2, CYP2C8 (Homo sapiens, UniProt P10632).
T2 construct: purchased
T2 sequence (P10632 1-490): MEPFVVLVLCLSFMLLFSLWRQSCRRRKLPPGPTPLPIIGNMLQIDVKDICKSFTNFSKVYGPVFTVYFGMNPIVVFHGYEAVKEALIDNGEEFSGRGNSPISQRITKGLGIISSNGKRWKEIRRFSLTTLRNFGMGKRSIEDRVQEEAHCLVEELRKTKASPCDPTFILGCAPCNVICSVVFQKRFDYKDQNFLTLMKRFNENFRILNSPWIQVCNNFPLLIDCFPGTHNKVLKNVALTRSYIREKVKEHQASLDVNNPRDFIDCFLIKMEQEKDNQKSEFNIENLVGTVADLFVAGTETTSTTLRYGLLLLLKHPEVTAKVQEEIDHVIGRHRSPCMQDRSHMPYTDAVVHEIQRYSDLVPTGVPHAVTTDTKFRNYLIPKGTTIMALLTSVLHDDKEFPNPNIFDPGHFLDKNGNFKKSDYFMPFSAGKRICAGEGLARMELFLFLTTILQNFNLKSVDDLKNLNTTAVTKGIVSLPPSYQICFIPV
In words: CYP450 inhibition, Vivid Baculosomes (2C8/DBOMF). The note with it: recombinant human CYP450 Baculosomes, substrate DBOMF; top concentration 5.00E-05. Format: in vitro ADME. The text has this:
(§1) The method uses recombinant human CYP450 to metabolize pro-fluorescent probe substrates to fluorescent products. IC50 values for the effect of test compounds on the metabolism of these probe substrates provides a measure of the potency of inhibition of individual CYP450 isoforms.
(§2) The described assays measure in vitro inhibitory effects (pIC50) of compounds at the human P450 isoforms (1A2, 2C8, 2C9, 2C19, 2D6, 3A4) expressed in recombinant microsomes. Pro-fluorescent probe substrates are metabolized to fluorescent products by the enzymes.
(§3) Fluorescence is measured in kinetic mode (1 read/min for 10 min) and the fluorescence rate is calculated. Data are normalized to controls: DMSO represents 0% effect (i.e. no inhibition), while 10 μM Miconazole is set to 100% effect (i.e. complete inhibition).
(§4) Inhibition of the fluorescent signal determined by P450 […] indicates antagonist activity of the compound and allows for the calculation of the compound plC50.
(§5) CRCs of compounds are run on two different test occasions (n=2) by preparing serial dilutions from the same compound stock solution. Details of the solutions are outlined in Table 6:
(§6) Test compound serial dilutions 1 to 3 were performed from a 10 mM stock solution in DMSO by Biomek FX to generate 10 point CRC. 100% DMSO was used for assay low controls. 10 mM (2 mM for 3A4/DBOMF, 2C8/DBOMF assay only) miconazole solution in DMSO was used as assay high controls. The final concentrations of the 10 point CRCs of test compounds in the assay plate were 5.00E-05; 1.67E-05; 5.56E-06; 1.85E-06; 6.17E-07; 2.06E-07; 6.86E-08; 2.29E-08; 7.62E-09 and 2.54E-09, respectively.
(§7) The CYP3A4 and CYP2C8 were assayed using the Vivid CYP3A4 Baculosomes, CYP2C8 Baculosomes and Vivid DBOMF Substrate. […]
(§8) 10 μl/well from compound plate was added and incubated for 10 min at 37° C. on a plate shaker. […] The plate was transferred into the fluorescent plate reader (EnVision, Wallac) immediately within 2 min and monitor fluorescence every minute for 10 (Excitation 485, Emission 535 and Mirror 505 FITC). […]
(§9) The inhibition effect was expressed as percentage. […]

For the next assay, the target named is CYP2C9 (Homo sapiens, UniProt P11712). Put plainly: CYP450 inhibition, pro-fluorescent probe substrate (2C9/FCA). To be noted: recombinant human CYP450, substrate FCA; top concentration 5.00E-05. In kind it is in vitro ADME.
For a further assay, the target named is CYP2D6 (Homo sapiens, UniProt P10635). Put plainly: CYP450 inhibition, pro-fluorescent probe substrate (2D6/MMMC). Format: in vitro ADME. To be noted: recombinant human CYP450, substrate MMMC; top concentration 5.00E-05.
The target of another assay is T3, CYP3A4 (Homo sapiens, UniProt P08684).
T3 construct: purchased
In words: CYP450 inhibition, Vivid Baculosomes (3A4/DBOMF). To be noted: substrate DBOMF, top concentration 5.00E-05, read-out: CYP3A4DBOMF. Format: in vitro ADME.
Description: as §1, §2, §3, §4, §5, §6, §7, §8, §9

The next assay has as its target CYP1A2 (Homo sapiens, UniProt P05177). Put plainly: CYP450 inhibition, pro-fluorescent probe substrate (1A2/ER).
Where [2] appears, read: currents at −15 mV voltage step, normalised to 50 microM reference compound and vehicle.

CYP1A2, sequence (P05177 whole entry): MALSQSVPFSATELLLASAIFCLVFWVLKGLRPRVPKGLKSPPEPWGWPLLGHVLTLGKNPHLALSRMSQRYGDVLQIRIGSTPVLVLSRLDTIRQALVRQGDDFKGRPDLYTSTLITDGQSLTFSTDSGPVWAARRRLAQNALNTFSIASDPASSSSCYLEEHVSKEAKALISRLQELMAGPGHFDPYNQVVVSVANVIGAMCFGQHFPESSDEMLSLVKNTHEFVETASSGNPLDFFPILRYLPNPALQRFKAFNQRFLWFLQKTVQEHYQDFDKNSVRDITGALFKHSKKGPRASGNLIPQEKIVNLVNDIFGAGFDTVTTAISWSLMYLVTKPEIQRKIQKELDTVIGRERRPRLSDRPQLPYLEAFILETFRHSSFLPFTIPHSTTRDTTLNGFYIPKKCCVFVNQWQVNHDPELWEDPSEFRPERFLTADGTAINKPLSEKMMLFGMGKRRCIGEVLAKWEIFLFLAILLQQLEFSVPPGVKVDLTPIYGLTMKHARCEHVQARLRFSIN
CYP2D6, sequence (P10635 whole entry): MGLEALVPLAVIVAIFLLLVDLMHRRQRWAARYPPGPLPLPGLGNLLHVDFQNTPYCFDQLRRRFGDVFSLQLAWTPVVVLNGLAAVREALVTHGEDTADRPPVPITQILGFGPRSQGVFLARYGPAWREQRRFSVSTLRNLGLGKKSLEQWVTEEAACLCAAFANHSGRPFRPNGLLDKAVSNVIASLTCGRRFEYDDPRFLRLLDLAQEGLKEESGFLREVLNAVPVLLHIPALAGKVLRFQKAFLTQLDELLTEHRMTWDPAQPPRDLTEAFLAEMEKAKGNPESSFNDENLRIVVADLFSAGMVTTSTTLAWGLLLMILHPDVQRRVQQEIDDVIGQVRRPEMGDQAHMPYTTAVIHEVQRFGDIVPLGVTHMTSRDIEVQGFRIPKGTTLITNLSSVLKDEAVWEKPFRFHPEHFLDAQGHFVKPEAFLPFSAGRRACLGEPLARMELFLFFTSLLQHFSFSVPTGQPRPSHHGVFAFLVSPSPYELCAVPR
T3 sequence (P08684 whole entry): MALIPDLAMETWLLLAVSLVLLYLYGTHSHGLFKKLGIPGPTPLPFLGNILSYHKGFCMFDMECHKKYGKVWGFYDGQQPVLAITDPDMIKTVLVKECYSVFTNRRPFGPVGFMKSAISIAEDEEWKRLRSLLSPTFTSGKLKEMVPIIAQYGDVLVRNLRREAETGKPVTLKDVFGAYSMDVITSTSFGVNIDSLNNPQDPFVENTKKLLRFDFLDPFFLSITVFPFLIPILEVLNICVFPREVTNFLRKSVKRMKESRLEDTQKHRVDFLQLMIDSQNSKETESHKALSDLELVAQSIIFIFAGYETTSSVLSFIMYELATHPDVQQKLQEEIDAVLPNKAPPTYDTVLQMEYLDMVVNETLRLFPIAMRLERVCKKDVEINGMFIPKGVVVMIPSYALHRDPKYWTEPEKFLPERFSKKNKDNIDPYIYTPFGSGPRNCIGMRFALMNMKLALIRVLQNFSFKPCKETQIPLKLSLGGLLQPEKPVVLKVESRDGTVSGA
CYP2C9, sequence (P11712 whole entry): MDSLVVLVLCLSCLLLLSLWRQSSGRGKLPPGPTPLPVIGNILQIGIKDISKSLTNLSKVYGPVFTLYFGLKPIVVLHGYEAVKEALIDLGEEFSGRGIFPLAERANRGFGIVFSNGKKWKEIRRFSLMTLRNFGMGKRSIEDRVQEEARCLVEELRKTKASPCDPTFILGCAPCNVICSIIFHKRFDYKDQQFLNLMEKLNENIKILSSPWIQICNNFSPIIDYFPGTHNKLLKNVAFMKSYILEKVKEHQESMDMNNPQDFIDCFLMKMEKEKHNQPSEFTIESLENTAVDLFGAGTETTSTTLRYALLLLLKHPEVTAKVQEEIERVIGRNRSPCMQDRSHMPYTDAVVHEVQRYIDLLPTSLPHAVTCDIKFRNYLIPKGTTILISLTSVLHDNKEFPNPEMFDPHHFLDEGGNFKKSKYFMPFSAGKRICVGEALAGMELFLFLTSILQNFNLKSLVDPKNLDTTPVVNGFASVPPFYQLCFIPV

Take `Cc1ccc(Oc2ccc(N3C(=O)NC(C)(C)C3=O)c(N)n2)c2c1OCC21CC1` [Example 1, 3-[2-amino-6-(7-methylspiro[2H-benzofuran-3,1′-cyclopropane]-4-yl)oxy-3-pyridyl]-5,5-dimethyl-imidazolidine-2,4-dione]: in assay [1] (setting [2]), the “Kv3.1 pEC50” value came out at 6.6. In addition, the EC50 in assay [1] (setting [2]) was 0.251 µM. The “Kv3.1 max R %” value in assay [1] worked out at 183%. Further, the IC50 was 8.9 µM at CYP2C8; 8.6 µM at CYP2C9; more than 50 µM on CYP2D6; more than 50 µM on CYP3A4; more than 50 µM against CYP1A2.

As to `CC1(C)NC(=O)N(c2ccc(Oc3cccc(OC(F)(F)F)c3)nc2N)C1=O` [Example 9, 3-[2-amino-6-[3-(trifluoromethoxy)phenoxy]-3-pyridyl]-5,5-dimethyl-imidazolidine-2,4-dione], the EC50 in assay [1] (setting [2]) is 2.51 µM. In assay [1], the “Kv3.1 max R %” value worked out at 118%. Also, the IC50 on CYP2C8, at CYP2C9, at CYP2D6, at CYP3A4 and at CYP1A2 was more than 50 µM in each case.

On to `COc1nc(Oc2ccc(C)c3c2C2(CC2)CO3)ccc1N1C(=O)NC(C)(C)C1=O` [Reference Example 2, reference compound], for which the EC50 in assay [1] (setting [2]) was 1 µM. Besides, the IC50 on CYP2C8 is 2.3 µM; at CYP2C9, 0.1 µM; at CYP2D6 it was more than 50 µM; at CYP3A4, 10.2 µM; on CYP1A2 it was more than 50 µM.
